# pEC50: −log10 of the molar value.
# Tests used:
# human GLP-1R receptor = target: T1, human GLP-1R receptor (Homo sapiens, UniProt P43220, L260F); assay: CHOK1 GLP-1R cAMP Assay; assay type: cell-based; conditions: CHO-K1 cell line stably expressing human GLP-1R; HTRF cAMP detection
# T1 construct: expressed in transfected cells; host or cells: CHO-K1 (ATCC CCL-61)
# Method: A cell line stably expressing the human GLP-1R receptor (NM_002062.5, including the naturally-occurring variant Leu260Phe) in a CHO-K1 (ATCC® CCL-61™) was used for assay.
# GLP-1 Receptor mediated agonist activity was determined in a cell based assay measuring cAMP levels in cells using Homogeneous Time-Resolved Fluorescence (HTRF) cAMP detection kit (CisBio catalog #62AM4PEC, cAMP Gs Dynamic range kit). The cAMP detection method is based on a competitive immunoassay, in which cAMP produced by the cells and cAMP labeled with the dye d2 compete for binding to a Europium-Cryptate-labeled anti-cAMP antibody. The specific HTRF signal is inversely proportional to the concentration of cAMP.
# Compounds were added to individual well in 384 well-assay plates (Greiner #784076) using an Echo (LabCyte) dispenser from 10 mM stocks. Varying concentration of compounds were added to wells, and dimethyl sulfoxide was used to normalize each well to a volume of 100 nanoliter. A dose response curve of GLP1(7-36)NH2 (Bachem H-6795) was included in each run. 5 μL of cAMP concentration response standards are applied in specified wells in the assay plates.
# Cryo-preserved cells are thawed and resuspended in assay buffer pre-heated to 37° C. (20 mM 2-[4-(2-hydroxyethyl)piperazin-1-yl]ethanesulfonic acid (HEPES) pH 7.4, lx Hank's Balanced Salt Solution (HBSS, Life Technologies #14065) supplemented with 0.1% (w/v) bovine serum albumin (Sigma, A-7030)). Cells were centrifuged at 250*g for 5 min at room temperature, and resuspend in room tempered assay buffer to a final density of 0.16*10^6 cell/mL, to deliver 800 cells/well. 5 μL of assay buffer with 1 mM 3-isobutyl-1-methylxanthin (IBMX; Sigma cat I-7018) was dispensed per well in assay plates using a multidrop combi (Thermo Scientific) subsequently 5 μL of cell suspension was distributed to relevant wells in the assay using a multidrop dispenser. Assay plates were incubated 20 min at room temperature.
# Detection reagents, Europium-Cryptate-labeled anti-cAMP antibody and cAMP labeled with the dye d2, are diluted in lysis buffer, provided by the manufacturer. 5 μL of each detection reagent is supplemented to each assay well using a multidrop dispenser. Assay plates are incubated in the dark for at least one hour. The HTRF signal is measured using the HTRF module (excitation: 337 nm, emission A: 665 nm and emission B: 620 nm) in Pherastar FSX (BMG Labtech).
# Raw data were converted to pM cAMP using the cAMP standard curve included in each run. Converted data were further analyzed in Genedata Screener (Genedata) and EC50 determinations were made from agonist dose-response curves analyzed with a curve fitting program using a 4-parameter logistic dose response equation (Equation y=A+((B−A)/1+((C/x)^D))) where A is no stimulation, B is full stimulation, C is the EC50 and D is the Hill slope). The percent effect was determined relative to a saturating concentration of a full GLP-1R agonist (GLP1(7-36)NH2 has 100% effect in this assay setup).
# [1] = target: T2, endogenous human glucagon-like peptide 1 receptor (GLP-1R) (Homo sapiens, UniProt P43220); assay: EndoC cAMP Accumulation Assay; assay type: cell-based; conditions: EndoC-βH1 human pancreatic β cell line; HTRF cAMP assay
# T2 construct: endogenous human glucagon-like peptide 1 receptor (GLP-1R) in a pancreatic insulinoma cell line; host or cells: EndoC-βH1 human pancreatic β cell line
# T2 sequence (P43220 24-463): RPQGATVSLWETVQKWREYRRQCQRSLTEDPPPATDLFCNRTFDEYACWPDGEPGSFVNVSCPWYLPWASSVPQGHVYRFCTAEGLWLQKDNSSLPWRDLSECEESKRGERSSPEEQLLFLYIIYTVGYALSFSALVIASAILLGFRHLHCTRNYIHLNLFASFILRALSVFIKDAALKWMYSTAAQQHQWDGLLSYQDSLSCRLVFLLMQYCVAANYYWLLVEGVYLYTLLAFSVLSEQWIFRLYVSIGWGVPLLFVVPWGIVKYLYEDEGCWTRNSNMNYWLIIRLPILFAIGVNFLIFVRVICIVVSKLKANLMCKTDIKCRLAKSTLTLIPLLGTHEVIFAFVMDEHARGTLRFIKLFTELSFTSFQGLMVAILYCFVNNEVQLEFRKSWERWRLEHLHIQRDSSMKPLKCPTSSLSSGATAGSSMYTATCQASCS
# Text: EndoC cAMP Accumulation Assay
# A HTRF (Homogeneous Time-Resolved Fluorescence) cAMP assay (cAMP Gs dynamic kit; CisoBio Cat #62AM4PEJ) was used to identify agonists of the endogenous human glucagon-like peptide 1 receptor (GLP-1R) in a pancreatic insulinoma cell line (EndoC-βH1). […] EndoC-βH1 cells have detectable GLP-1R mRNA as detected by qPCR^1. […] The EndoC-βH1 cell line is a valid model of human beta cells and applicable for screenings to identify novel drug target candidates (Mol. Metab., 2018, 8, 144-157). CisBio HTRF cAMP kits are based on a competitive immunoassay using cryptate-labelled anti-cAMP antibody and d2-labeled cAMP. The detection kit is intended for the direct quantitative determination of cAMP. The specific signal (i.e. energy transfer) is inversely proportional to the concentration of cAMP in the standard or sample. Test compounds (10 mM in DMSO) were diluted into assay buffer (HBSS (Sigma #H8264) supplemented with 25 mM HEPES (Gibco #15630, pH 7.4), 0.1% BSA (Sigma #A3059) and 0.5 mM IBMX (Sigma #I7018) included fresh on the day of the assay) into 96 well U-bottom plates (Greiner #650201). Diluted compounds were transferred to ECHO source PP plates (Labcyte #P-05525) and dose response curves were dispensed acoustically using ECHO 550 into black shallow-well u-bottom 384-well HTRF Assay Plates (Corning 4514).
# Cryovials of EndoC-H1 (supplied at 1×10e^7 cells/vial) were used directly for screening. The cryovials and were removed from LN2 and thawed rapidly in a 37° C. water bath. The cells were resuspended in assay buffer and centrifuged at 300 g for 5 min. Cells were resuspended in assay buffer at the appropriate concentration, typically at 12e5 cells per mL (3000 cells per well, dependent on cell batch) and 2.5 μL diluted cells were added to all wells of destination plate by Multidrop combi reagent dispenser (Thermofisher). The plates were incubated at room temperature for 30 min. The assay was stopped by adding 2.5 μL anti-cAMP cryptate solution to all wells and 2.5 μL cAMP-d2 solution (both diluted 1:20 in lysis buffer) to columns 1-22 by Combi drop. A volume of 2.5 μL cAMP-d2 solution was added to wells E23 to P24 and 2.5 μL lysis buffer added to wells A23 to D24 by multichannel pipette. The plates were incubated at room temperature for 1 hr and read on an Envision plate reader using excitation wavelength of 320 nm and emission of 590 nm and 660 nm.
# Raw data from Envision is converted to % DeltaF according to the manufacturer's instructions. Dose response curves are analysed via 4-Parameter Logistical Analysis and assay plate Z′ values obtained. Samples are graphed as percentage (%) activation plots compared to GIP (1-42, Bachem H-5645) with assay window defined by negative control as basal cell cAMP levels and positive control are defined by maximum GIP (82.5 nM) signal. GLP1 (7-36 amide, Bachem H-6795) dose response curve was included on all plates.
# T1 sequence (P43220 24-463 L260F): as the sequence (P43220 24-463) above, with L237F counted along it
SMILES,pEC50 (human GLP-1R receptor),pEC50 [1]
"C[C@]1(c2ccc(Cl)cn2)Oc2cccc(N3CCN(Cc4nc5ccc(C(=O)O)cc5n4C[C@@H]4CCO4)[C@H]4COC[C@H]43)c2O1 (relative stereo) [Example 5a, 2-((4aR*,7aS*)-4-((R*)-2-(5-Chloropyridin-2-yl)-2-methylbenzo[d][1,3]dioxol-4-yl)hexahydrofuro[3,4-b]pyrazin-1(2H)-yl)methyl)-1-(((S)-oxetan-2-yl)methyl)-1H-benzo[d]imidazole-6-carboxylic acid]",6.74,5.89
"C[C@@]1(c2ccc(Cl)cc2F)Oc2cccc(N3CCN(Cc4nc5c(F)cc(C(=O)O)cc5n4Cc4cccnc4)[C@@H]4COC[C@@H]43)c2O1 (relative stereo) [Example 13c, rel-2-(((4aR,7aS)-4-((R)-2-(4-Chloro-2-fluorophenyl)-2-methylbenzo[d][1,3]dioxol-4-yl)hexahydrofuro[3,4-b]pyrazin-1(2H)-yl)methyl)-4-fluoro-1-(pyridin-3-ylmethyl)-1H-benzo[d]imidazole-6-carboxylic acid]",6.14,6.47
"C[C@@]1(c2ccc(Cl)cc2F)Oc2cccc(N3CCN(Cc4nc5c(Cl)cc(C(=O)O)cc5n4C[C@@H]4CCO4)[C@@H]4COC[C@@H]43)c2O1 (relative stereo) [Example 15a, 4-Chloro-2-(((4aR*,7aS*)-4-((R*)-2-(4-chloro-2-fluorophenyl)-2-methylbenzo[d][1,3]dioxol-4-yl)hexahydrofuro[3,4-b]pyrazin-1(2H)-yl)methyl)-1-(((S)-oxetan-2-yl)methyl)-1H-benzo[d]imidazole-6-carboxylic acid]",8.96,8.72
"COc1cc(C(=O)O)cc2c1nc(CN1CCN(c3cccc4c3OC(C)(c3ccc(Cl)cc3F)O4)[C@@H]3COC[C@@H]31)n2C[C@@H]1CCCO1 (relative stereo) [Example 28, 2-(((4aS,7aR)-4-((R*)-2-(4-Chloro-2-fluorophenyl)-2-methylbenzo[d][1,3]dioxol-4-yl)hexahydrofuro[3,4-b]pyrazin-1(2H)-yl)methyl)-4-methoxy-1-(((S)-tetrahydrofuran-2-yl)methyl)-1H-benzo[d]imidazole-6-carboxylic acid]",8.70,8.92
"COc1cc(C(=O)O)cc2c1nc(CN1CCN(c3cccc4c3O[C@@](C)(c3ccc(Cl)cn3)O4)[C@@H]3COC[C@@H]31)n2C[C@@H]1CCO1 (single isomer, unassigned) [Example 1a, 2-(((4aR*,7aS*)-4-((R*)-2-(5-Chloropyridin-2-yl)-2-methylbenzo[d][1,3]dioxol-4-yl)hexahydrofuro[3,4-b]pyrazin-1(2H)-yl)methyl)-4-methoxy-1-(((S)-oxetan-2-yl)methyl)-1H-benzo[d]imidazole-6-carboxylic acid]",6.85,6.68
"COc1cc(C(=O)O)cc2c1nc(CN1CCN(c3cccc4c3O[C@@](C)(c3ccc(Cl)cn3)O4)[C@@H]3COC[C@@H]31)n2C[C@@H]1CCCO1 (single isomer, unassigned) [Example 2b, 2-(((4aR*,7aS*)-4-((R*)-2-(5-Chloropyridin-2-yl)-2-methylbenzo[d][1,3]dioxol-4-yl)hexahydrofuro[3,4-b]pyrazin-1(2H)-yl)methyl)-4-methoxy-1-(((S)-tetrahydrofuran-2-yl)methyl)-1H-benzo[d]imidazole-6-carboxylic acid]",6.96,7.07
"COc1cc(C(=O)O)cc2c1nc(CN1CCN(c3cccc4c3O[C@@](C)(c3ccc(Cl)cc3F)O4)[C@@H]3COC[C@@H]31)n2C[C@@H]1CCO1 (single isomer, unassigned) [Example 3a, 2-(((4aR*,7aS*)-4-((R*)-2-(4-Chloro-2-fluorophenyl)-2-methylbenzo[d][1,3]dioxol-4-yl)hexahydrofuro[3,4-b]pyrazin-1(2H)-yl)methyl)-4-methoxy-1-(((S)-oxetan-2-yl)methyl)-1H-benzo[d]imidazole-6-carboxylic acid]",8.92,8.77
"COc1cc(C(=O)O)cc2c1nc(CN1CCN(c3cccc4c3O[C@@](C)(c3ccc(Cl)cc3F)O4)[C@@H]3COC[C@@H]31)n2C[C@@H]1CCO1 (single isomer, unassigned) [Example 3b, 2-(((4aR*,7aS*)-4-((R*)-2-(4-Chloro-2-fluorophenyl)-2-methylbenzo[d][1,3]dioxol-4-yl)hexahydrofuro[3,4-b]pyrazin-1(2H)-yl)methyl)-4-methoxy-1-(((S)-oxetan-2-yl)methyl)-1H-benzo[d]imidazole-6-carboxylic acid]",7.21,6.57
"COc1cc(C(=O)O)cc2c1nc(CN1CCN(c3cccc4c3O[C@@](C)(c3ccc(Cl)cc3F)O4)[C@@H]3COC[C@@H]31)n2C[C@@H]1CCO1 (single isomer, unassigned) [Example 3c, 2-(((4aR*,7aS*)-4-((R*)-2-(4-Chloro-2-fluorophenyl)-2-methylbenzo[d][1,3]dioxol-4-yl)hexahydrofuro[3,4-b]pyrazin-1(2H)-yl)methyl)-4-methoxy-1-(((S)-oxetan-2-yl)methyl)-1H-benzo[d]imidazole-6-carboxylic acid]",6.82,6.89
"C[C@]1(c2ccc(Cl)cc2F)Oc2cccc(N3CCN(Cc4nc5ccc(C(=O)O)cc5n4CCn4cccn4)[C@H]4COC[C@H]43)c2O1 (single isomer, unassigned) [Example 7b]",6.42,
